Laboratory results published in patent publication US20220378923A1, “BET DEGRADER” (KYOWA KIRIN CO., LTD., priority 2019, published 2022).
Read-outs that look alike come from different tables or passages of the source.

Columns and labels:
[1] = tested on: SU-DHL-4 cells; assay: Inhibitory effect on cell viability in SU-DHL-4 cell line (Test Example 1); type: cell-based, human; conditions: 72 hours; for IC50: SU-DHL-4 (wild type) cells, calculated using the measurement results of test example 1, read-out: SU-DHL-4 WT IC50; for IC90: SU-DHL-4 cells, Cell Counting Kit-8, concentration showing 90% inhibition of cell viability, read-out: SU-DHL-4 Cell Viability Inhibition Rate IC90
Summary of the method: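 SU-DHL-4 cells were grown at 37° C. under 5% CO2 in RPMI1640 with 10 vol % heat-inactivated FBS plus penicillin/streptomycin, seeded and precultured for 18 to 25 hours, then exposed to test compound at 0.1 vol % DMSO for 72 hours. Viability was read with Cell Counting Kit-8 by absorbance at 450 nm.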

[2] = tested on: MYC mRNA expression in SU-DHL-4 cells; assay: Suppressive effect on MYC mRNA expression (Test Example 2); type: cell-based, human; conditions: test compound 100 nmol/L, 6 hours, qRT-PCR corrected by ACTB, GAPDH; for inhibition at 0.1 µM: Homo sapiens, HPRT1, read-out: Suppression Rate of MYC mRNA Expression (%)
Protocol: The cells were passaged twice a week at a volume of 20-40 mL so as to maintain a cell concentration of 1×10^6 cells/mL or less. The cultured SU-DHL-4 cells were seeded at 6×10^5 cells/well in a transparent 6-well plate (Code No. 140675, Thermo Fisher Scientific). After seeding, the cells were precultured at 37° C. in a carbon dioxide gas incubator for 18 to 25 hours. […] At this time, the final concentration of DMSO was adjusted to be 0.1 vol %. After adding the test compound, the cells were cultured at 37° C. in a carbon dioxide gas incubator for 6 hours. Then, the cells were collected by centrifugation and used for extraction of mRNA. mRNA extraction from cells was performed using Maxwell® 16 LEV simplyRNA Purification Kits (Code No. AS1270, Promega). The mRNA recovery protocol was performed according to the manufacturer's recommended protocol attached to the kit. […] The cDNA conversion was performed, according to the manufacturer's recommended protocol attached to the kit, in 0.020 mL of the reaction solution, and GeneAmp® PCR System 9700 (Applied Biosystems) was used. The cDNA-converted sample was diluted 10-fold by adding 0.180 mL of RNase Free Water (Code No. 10977-023, Thermo Fisher Scientific) and used for quantitative real-time polymerase chain reaction (qRT-PCR). For the calibration curve of qRT-PCR, 0.08 mL of RNase Free Water was added to a cDNA sample using DMSO as a test compound for 5-fold dilution. Further, two 5-fold dilutions were prepared stepwise, and these three samples were used as the calibration curve samples. The following reagents were used for qRT-PCR: TaqMan Gene Expression Assays, Inventoried (Primer probe: Code No. 4331182, Thermo Fisher Scientific, Assay ID: (i) MYC: Hs00153408_m1, (ii) ACTB: Hs01060665_g1, (iii) GAPDH: Hs04420697_g1, (iv) HPRT1: […] Universal PCR Master Mix, no AmpEraseR UNG (Master Mix: Code No. 4367846, Thermo Fisher Scientific). Primer probe (0.001 mL), Master Mix (0.010 mL), water (0.004 mL) and the diluted cDNA sample (0.005 mL) were mixed, and qRT-PCR analysis was performed. For qRT-PCR analysis, QuantStudio 7 Flex (Thermo Fisher Scientific) or 7500 Fast Real-Time PCR (Applied Biosystems) was used to measure in Fast mode and analyze. […] Corrected MYC expression=A/B • A: MYC expression level • B: Geometric mean of expression levels of ACTB, GAPDH and HPRT1 Using the corrected values, the suppression rate of MYC expression for the wells to which the test compound was not added was calculated by the following formula. […] Corrected MYC expression level in a well containing test compound • D: Corrected MYC expression level in a well to which test compound was not added

Compound	IC50 ([1]; Homo sapiens)	inhibition at 0.1 µM [2]	further results
CCC(=O)N1c2ccccc2[C@H](NCc2ccc(C(=O)N3CC(C(=O)Nc4ccc(N[C@@H]5C[C@H](C)N(C(=O)CC)c6ccccc65)cc4)C3)cc2)C[C@@H]1C (relative stereo) [Compound 10g, 1-(4-((((2S*,4R*)-2-Methyl-1-propionyl-1,2,3,4-tetrahydroquinolin-4-yl)amino)methyl)benzoyl)-N-(4-(((2S,4R)-2-methyl-1-propionyl-1,2,3,4-tetrahydroquinolin-4-yl)amino)phenyl)azetidine-3-carboxamide]	0.91 nM	97.2%	–
CCC(=O)N1c2ccccc2[C@H](Nc2ccc(C(=O)NCC(=O)CNC(=O)c3ccc(N[C@@H]4C[C@H](C)N(C(=O)CC)c5ccccc54)cc3)cc2)C[C@@H]1C [Compound 1l, N,N′-(2-Oxopropane-1,3-diyl)bis(4-{[(2S,4R)-2-methyl-1-propionyl-1,2,3,4-tetrahydroquinolin-4-yl]amino}benzamide)]	0.03 nM	98.5%	–
CCC(=O)N1c2ccccc2[C@H](Nc2ccc(NC(=O)C3CN(C(=O)C4CCN(Cc5cc(O)cc(-c6c(C)noc6C)c5)CC4)C3)cc2)C[C@@H]1C [Compound 12b, 1-(1-(3-(3,5-Dimethylisoxazol-4-yl)-5-hydroxybenzyl)piperidine-4-carbonyl)-N-(4-(((2S,4R)-2-methyl-1-propionyl-1,2,3,4-tetrahydroquinolin-4-yl)amino)phenyl)azetidine-3-carboxamide]	2.83 nM	97.8%	–
CCC(=O)N1c2ccccc2[C@H](Nc2ccc(NC(=O)CCCC(=O)NC3CCC(Cn4cc(-c5c(C)noc5C)ccc4=O)CC3)cc2)C[C@@H]1C (stereo partly drawn) [Compound 16p, N^1-((1r,4r)-4-((5-(3,5-Dimethylisoxazol-4-yl)-2-oxopyridin-1(2H)-yl)methyl)cyclohexyl)-N5-(4-(((2S,4R)-2-methyl-1-propionyl-1,2,3,4-tetrahydroquinolin-4-yl)amino)phenyl)glutaramide]	–	–	IC50 [1]: 0.27 nM; IC90 [1]: 0.63 nM; Suppression Rate of MYC mRNA Expression (%) ([2]; HPRT1): 96.2%
CCC(=O)N1c2ccccc2[C@H](Nc2ccc(CNCc3cn(-c4ccc(N[C@@H]5C[C@H](C)N(C(=O)CC)c6ccccc65)cc4)nn3)cc2)C[C@@H]1C [Compound 5h, 1-((2S,4R)-2-Methyl-4-((4-((((1-(4-(((2S,4R)-2-methyl-1-propionyl-1,2,3,4-tetrahydroquinolin-4-yl)amino)phenyl)-1H-1,2,3-triazol-4-yl)methyl)amino)methyl)phenyl)amino)-3,4-dihydroquinolin-1(2H)-yl)propan-1-one]	0.06 nM	97.3%	–
CCC(=O)N1c2ccccc2[C@H](Nc2ccc(CCCC(=O)Nc3ccc(N[C@@H]4C[C@H](C)N(C(=O)CC)c5ccccc54)cc3)cc2)C[C@@H]1C [Compound 5r, N,4-Bis(4-(((2S,4R)-2-methyl-1-propionyl-1,2,3,4-tetrahydroquinolin-4-yl)amino)phenyl)butanamide]	0.53 nM	96.7%	–
CCC(=O)N1c2ccccc2[C@H](NCC23CCC(C(=O)N4CC(C(=O)Nc5ccc(N[C@@H]6C[C@H](C)N(C(=O)CC)c7ccccc76)cc5)C4)(CC2)CC3)C[C@@H]1C (relative stereo) [Compound 17o, 1-(4-((((2S,4R)-2-Methyl-1-propionyl-1,2,3,4-tetrahydroquinolin-4-yl)amino)methyl)bicyclo[2.2.2]octane-1-carbonyl)-N-(4-(((2S*,4R*)-2-methyl-1-propionyl-1,2,3,4-tetrahydroquinolin-4-yl)amino)phenyl)azetidine-3-carboxamide]	0.78 nM	97.1%	IC90 ([1]; Homo sapiens): 2.18 nM
CCC(=O)N1c2ccccc2[C@H](Nc2ccc(NC(=O)CCCC(=O)Nc3ccc(Cn4cc(-c5c(C)noc5C)ccc4=O)cc3)cc2)C[C@@H]1C [Compound 17a, N^1-(4-((5-(3,5-Dimethylisoxazol-4-yl)-2-oxopyridin-1(2H)-yl)methyl)phenyl)-N5-(4-(((2S,4R)-2-methyl-1-propionyl-1,2,3,4-tetrahydroquinolin-4-yl)amino)phenyl)glutaramide]	0.1 nM	96.2%	IC90 ([1]; Homo sapiens): 0.16 nM
CCC(=O)N1c2ccccc2[C@H](Nc2ccc(NC(=O)CNC(=O)Nc3ccc(C4=NCc5nnc(C)n5-c5sc(C)c(C)c54)cc3)cc2)C[C@@H]1C [Compound 14f, N-(4-(((2S,4R)-2-Methyl-1-propionyl-1,2,3,4-tetrahydroquinolin-4-yl)amino)phenyl)-2-(3-(4-(2,3,9-trimethyl-6H-thieno[3,2-f][1,2,4]triazolo[4,3-a][1,4]diazepin-4-yl)phenyl)ureido)acetamide]	0.14 nM	97.3%	–
CCC(=O)N1c2ccccc2[C@H](Nc2ccc(Cc3cnc4n3CCN(C(=O)c3ccc(N[C@@H]5C[C@H](C)N(C(=O)CC)c6ccccc65)cc3)C4)cc2)C[C@@H]1C [Compound 5q, 1-((2S,4R)-2-Methyl-4-((4-((7-(4-(((2S,4R)-2-methyl-1-propionyl-1,2,3,4-tetrahydroquinolin-4-yl)amino)benzoyl)-5,6,7,8-tetrahydroimidazo[1,2-a]pyrazin-3-yl)methyl)phenyl)amino)-3,4-dihydroquinolin-1(2H)-yl)propan-1-one]	0.09 nM	97.2%	–
CCC(=O)N1c2ccccc2[C@H](Nc2ccc(C(=O)NCCCNC(=O)c3ccc(C4=N[C@@H](CC(=O)OC(C)(C)C)c5nnc(C)n5-c5sc(C)c(C)c54)cc3)cc2)C[C@@H]1C [Compound 1h, tert-Butyl 2-[(S)-2,3,9-trimethyl-4-(4-{[3-(4-{[(2S,4R)-2-methyl-1-propionyl-1,2,3,4-tetrahydroquinolin-4-yl]amino}benzamide)propyl]carbamoyl}phenyl)-6H-thieno[3,2-f][1,2,4]triazolo[4,3-a][1,4]diazepin-6-yl]acetate]	–	–	IC90 [1]: 0.27 nM
CCC(=O)N1c2ccccc2[C@H](Nc2ccc(NC(=O)CCCC(=O)Nc3ccc(N[C@@H]4C[C@H](C)N(C(=O)CC)c5ccccc54)cc3)cc2)C[C@@H]1C [Compound 6k, N^1,N^5-Bis(4-(((2S,4R)-2-methyl-1-propionyl-1,2,3,4-tetrahydroquinolin-4-yl)amino)phenyl)glutaramide]	–	97%	–
CCC(=O)N1c2ccccc2[C@H](Nc2ccc(-n3cc(CCNC(=O)[C@H]4CC[C@H](N[C@@H]5C[C@H](C)N(C(=O)CC)c6ccccc65)CC4)nn3)cc2)C[C@@H]1C [Compound 8a, (1R,4r)-4-(((2S,4R)-2-Methyl-1-propionyl-1,2,3,4-tetrahydroquinolin-4-yl)amino)-N-(2-(1-(4-(((2S,4R)-2-methyl-1-propionyl-1,2,3,4-tetrahydroquinolin-4-yl)amino)phenyl)-1H-1,2,3-triazol-4-yl)ethyl)cyclohexane-1-carboxamide]	–	–	IC90 [1]: 0.87 nM
Cc1sc2c(c1C)C(c1ccc(C(=O)NCc3cn(-c4ccc(C5=N[C@@H](CC(=O)OC(C)(C)C)c6nnc(C)n6-c6sc(C)c(C)c65)cc4)nn3)cc1)=N[C@@H](CC(=O)OC(C)(C)C)c1nnc(C)n1-2 [Compound 3b, tert-Butyl 2-[(S)-4-(4-{4-[(4-{(S)-6-[2-(tert-butoxy)-2-oxoethyl]-2,3,9-trimethyl-6H-thieno[3,2-f][1,2,4]triazolo[4,3-a][1,4]diazepin-4-yl}benzamide)methyl]-1H-1,2,3-triazol-1-yl}phenyl)-2,3,9-trimethyl-6H-thieno[3,2-f][1,2,4]triazolo[4,3-a][1,4]diazepin-6-yl]acetate]	–	–	IC90 [1]: 0.18 nM
